Results: patent US20210127673A1, “HERBICIDES” (SYNGENTA PARTICIPATIONS AG, priority 2016, published 2021)

What was measured:
Assay type in all cases: in vivo
Settings in all cases: 1000 g/ha, evaluated after 13 days
[1] = tested on: Triticum aestivium (TRZAW); experiment: Pre-emergence herbicidal activity, Triticum aestivium; design: key: 5=total damage to plant; 0=no damage to plant
In short: (§1)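 Compound is applied as an aqueous spray (acetone/water 50:50, 0.5% Tween 20) to pots one day after sowing, before emergence. Growth continues in a glasshouse at 24/16 °C, 14 h photoperiod, 65% humidity, with twice-daily watering, and injury is graded after 13 days from 0 (no damage) to 5 (total damage).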

[2] = tested on: Avena fatua (AVEFA); experiment: Pre-emergence herbicidal activity, Avena fatua; design: key: 5=total damage to plant; 0=no damage to plant
In short: as §1

[3] = tested on: Alopecurus myosuroides (ALOMY); experiment: Pre-emergence herbicidal activity, Alopecurus myosuroides; design: key: 5=total damage to plant; 0=no damage to plant
In short: as §1

[4] = tested on: Echinochloa crus-galli (ECHCG); experiment: Pre-emergence herbicidal activity, Echinochloa crus-galli
In short: as §1

[5] = tested on: Lolium perenne (LOLPE); experiment: Pre-emergence herbicidal activity, Lolium perenne; design: key: 5=total damage to plant; 0=no damage to plant
In short: as §1

[6] = tested on: Setaria faberi (SETFA); experiment: Pre-emergence herbicidal activity, Setaria faberi
In short: as §1

[7] = tested on: Triticum aestivium (TRZAW); experiment: Post-emergence herbicidal activity, Triticum aestivium; design: key: 5=total damage to plant; 0=no damage to plant
In short: (§2)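 Each value is a visual damage score from 0 (no effect) to 5 (plant killed), assessed 13 days after a foliar spray applied to 8-day-old plants. The compound was applied in acetone/water 50:50 with 0.5% Tween 20 under controlled glasshouse conditions.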

[8] = tested on: Avena fatua (AVEFA); experiment: Post-emergence herbicidal activity, Avena fatua; design: key: 5=total damage to plant; 0=no damage to plant
In short: as §2

[9] = tested on: Alopecurus myosuroides (ALOMY); experiment: Post-emergence herbicidal activity, Alopecurus myosuroides; design: key: 5=total damage to plant; 0=no damage to plant
In short: as §2

[10] = tested on: Echinochloa crus-galli (ECHCG); experiment: Post-emergence herbicidal activity, Echinochloa crus-galli
In short: as §2

[11] = tested on: Lolium perenne (LOLPE); experiment: Post-emergence herbicidal activity, Lolium perenne
In short: as §2

[12] = tested on: Setaria faberi (SETFA); experiment: Post-emergence herbicidal activity, Setaria faberi
In short: as §2

Row | Structure (SMILES) | Control of TRAZW after pre-emergence application (score 0-5) [1] | Control of AVEFA after pre-emergence application (score 0-5) [2] | Control of ALOMY after pre-emergence application (score 0-5) [3] | Control of ECHCG after pre-emergence application (score 0-5) [4] | Control of LOLPE after pre-emergence application (score 0-5) [5] | Control of SETFA after pre-emergence application (score 0-5) [6] | Control of TRAZW after post-emergence application (score 0-5) [7] | Control of AVEFA after post-emergence application (score 0-5) [8] | Control of ALOMY after post-emergence application (score 0-5) [9] | Control of ECHCG after post-emergence application (score 0-5) [10] | Control of LOLPE after post-emergence application (score 0-5) [11] | Control of SETFA after post-emergence application (score 0-5) [12]
1 | O=C(Nc1ccccc1)Nc1ccc(-c2cncc(F)c2)nc1C(F)(F)F [Compound B71] | 0 | 0 | 0 | 1 | 0 | 1 | 1 | 2 | 0 | 3 | 2 | 3
2 | CN(C(N)=O)c1ccc(-c2cncc(F)c2)nc1C(F)(F)F [Compound B72] | 0 | 0 | 0 | 2 | 0 | 4 | 1 | 1 | 1 | 4 | 1 | 4
3 | CNC(=O)N(C)c1ccc(-c2cncc(F)c2)nc1C(F)(F)F [Compound B73] | 0 | 0 | 0 | 2 | 1 | 4 | 1 | 3 | 1 | 4 | 2 | 4
4 | COC(=O)c1nc(-c2cncc(F)c2)ccc1N(C(=O)OC(C)(C)C)C(=O)OC(C)(C)C [Compound B76, methyl 3-[bis(tert-butoxycarbonyl)amino]-6-(5-fluoro-3-pyridyl)pyridine-2-carboxylate] | 0 | 0 | 0 | 1 | 0 | 3 | 0 | 0 | 0 | 1 | 1 | 3
